Laboratory results reported in US12522631B2, “Compounds for use in the treatment of liver disease” (The Provost, Fellows, Foundation Scholars, And The Other …, priority 2019, dated 2026).
Counter-ions that a name gives are not always drawn. Like-named read-outs stand apart in the source and are kept apart here.

Legend:
HUH-7 cells [1] = test: MTT cell viability assay, HUH-7 cells treated with DCA; type: cell-based; settings: 100, 50, 10 μM; 24 h before DCA 200 μM, then co-treated 24 h (FIG. 14b)
Source text: (§1) The alamarBlue™ assay uses resazurin-based reagents that function as cell health indicators by using the reducing power of living cells to quantitatively measure viability. Upon entering living cells, resazurin is reduced to resorufin, a compound that is red in color and highly fluorescent. The MTT assay is a colorimetric assay for assessing cell metabolic activity. NAD(P)H-dependent cellular oxidoreductase enzymes may, under defined conditions, reflect the number of viable cells present.

HUH-7 cells [2] = test: alamarBlue cell viability assay, HUH-7 cells treated with DCA; type: cell-based; settings: 24 h before DCA 200 μM, then co-treated 24 h (FIG. 14a); for cytoprotective effect (alamarBlue): 100, 50, 10 μM
Source text: as §1, with “The difference between the observed cell viability in each of the assays is a consequence of the different properties measured in each assay. The alamarBlue™” for “The alamarBlue™”

HUH-7 cells [3] = test: Cytoprotection model: DCA-induced cell death in HUH-7 cells
Procedure: HUH-7 cells were then treated with UDCA and TUDCA in increasing concentration.
HUH-7 cells in culture were then treated with a large library of UDCA 7-analogues to screen for compounds lacking intrinsic toxicity.

[4] = tested on: ANIT-induced model of cholangitis; test: Rat ANIT-induced model of cholangitis; type: in vivo, Sprague-Dawley rats; settings: oral, over a week, 20-30 mg/kg
Procedure: This rat model of cholangitis was employed to assess the efficacy of lead compounds by monitoring aspartate aminotransferase (AST) serum levels and alanine aminotransferase (ALT) serum levels.
Test compounds were to be assessed for their effect on liver damage using this chronic ANIT-induced model of cholangitis. UDCA was tested orally at high dose of 100 mg/kg in order to ensure an effect in the functional model that mimics its clinical effects in cholestasis patients. […] In this case ANIT was added to the chow at 0.1% inducing cholestasis and the compounds were tested by oral administration over the course of a week. Serum liver enzymes AST and ALT were measured as measures of liver damage and cholestasis. In comparison to the UDCA dose, the sulfonamide and triazole were dosed in the range 20-30 mg/kg.

HUH-7 cells [5] = test: alamarBlue cell viability assay, HUH-7 cells treated with tunicamycin
Source text: Tunicamycin is known to induce Endoplasmic Reticulum (ER) stress, resulting ultimately in induction of apopotosis.

HepG2 cells = test: alamarBlue cell viability assay, HepG2 cells treated with tunicamycin; type: cell-based
[6] = compared to ursodeoxycholic acid; cited from earlier work
HUH-7 liver cancer cells = type: cell-based
Procedure: A model of bile-acid induced liver injury was developed using HUH-7 liver cancer cells growing in culture. These were treated with increasing concentrations of DCA and GCDCA and the effect monitored using cell count on a high content platform (for example on an IN Cell analyser), MTT as a measure of metabolic activity and propidium iodide (PI). PI is normally cell impermeable so cellular staining is used as a way to detect cells with damaged walls. Appearance of PI positive cells soon after treatment with bile acid and PI indicated necrosis possibly through surfactant damage to the cell wall. A reduction in cell number or metabolic activity occurred without significant PI staining is consistent with an apoptotic form of cell death. DCA caused significant cell death in the range 200-500 μM associated with apoptosis because of the low levels of PI staining. […] (See FIG. 3(a) and FIG. 3(b)).

[7] = tested on: hepatocytes in cell culture; settings: in vitro, cited from earlier work
HUH-7 cells [8] = test: Cytoprotection model: GCDCA-induced cell death in HUH-7 cells; type: cell-based; settings: 24 h pre-treatment, then co-treatment with GCDCA
[9] = cited from earlier work
[10] = oral, rats; cited from earlier work
[11] = hamsters; cited from earlier work
[12] = 24 h before TM 5 μM, then co-treated 24 h (FIG. 15a)

C[C@H](CCC(=O)O)[C@H]1CC[C@H]2[C@@H]3[C@@H](NS(C)(=O)=O)C[C@@H]4C[C@H](O)CC[C@]4(C)[C@H]3CC[C@]12C [Compound 21, 3α-hydroxy-7β-(methanesulfonamido)-5β-cholanoate]
cytoprotective effect / increase in cell viability (MTT) (HUH-7 cells [1]): significant cytoprotective effect
cytoprotective effect (alamarBlue) (HUH-7 cells [2]): significant cytoprotective effect at all concentrations measured
concentration with almost complete cell viability/cytoprotection (HUH-7 cells [2]): ≥ 50 µM
concentration range of effective inhibition of DCA-induced cell death (HUH-7 cells [3]; FIG. 7): 10 to 100 µM
AST serum levels ([4]; ANIT 0.1% in chow (FIG. 8a)): normalised AST serum levels
ALT serum levels ([4]; ANIT 0.1% in chow (FIG. 8b)): normalised ALT serum levels
cell viability on pre/co-treatment with tunicamycin (HUH-7 cells [5]; [12]): significant increase in cell viability
concentration giving complete maintenance of cell viability (or effects of similar size) (HUH-7 cells [5]; [12]): 10 µM
cytoprotective effect against tunicamycin (HepG2 cells; 24 h before TM 5 μM, then co-treated 24 h (FIG. 15b)): cytoprotective effect of sulfonamide (21) was also observed
comparison with UDCA and TUDCA under the same conditions (HepG2 cells; lowest concentration tested of sulfonamide (21)): outperformed all concentrations of UDCA and TUDCA

C[C@H](CCC(=O)O)[C@H]1CCC2C3C(CC[C@@]21C)[C@@]1(C)CC[C@@H](O)CC1[C@@H](C)[C@@H]3O (stereo partly drawn) [6-α-methyl ursodeoxycholic acid]
metabolic stability [6]: increased metabolic stability compared to ursodeoxycholic acid

C[C@H](CCC(=O)O)[C@H]1CC[C@H]2[C@@H]3CC[C@@H]4C[C@H](O)CC[C@]4(C)[C@H]3C[C@H](O)[C@]12C [DCA, deoxycholic acid]
concentration range causing significant cell death (HUH-7 liver cancer cells; human): 200 to 500 µM

C[C@H](CCC(=O)NCCS(=O)(=O)O)[C@H]1CC[C@H]2[C@@H]3[C@@H](O)C[C@@H]4C[C@H](O)CC[C@]4(C)[C@H]3CC[C@]12C [TUDCA, tauroursodeoxycholic acid]
cytoprotective effect / increase in cell viability (MTT) (HUH-7 cells [1]): significantly lesser degree
cytoprotective effect (alamarBlue) (HUH-7 cells [2]): less than with UDCA and the sulphonamide (21)
protective effect in cell-based models ([7]; up to the mM concentration range): weakly but consistently protective
protective effect when compound withdrawn before DCA (HUH-7 cells [3]; 24 h pre-treatment (UDCA 100 μM, TUDCA 1 mM), withdrawn, then DCA (FIG. 4c)): protective effect of TUDCA was not observed
cell viability 24 h after DCA, compared to DCA alone (HUH-7 cells [3]; 24 h pre-treatment, then DCA 200 μM added, TUDCA 1 mM, UDCA 100 μM (FIG. 4b)): significant increase in cell viability
cell viability at 24 h post treatment, combination with DCA (HUH-7 cells [3]; combined with DCA without pre-treatment (FIG. 4a)): did not lead to increased cell viability
concentration giving statistically significant increase in cell viability (HUH-7 cells [3]; pre-/co-treatment with DCA (FIG. 5a)): ≥ 1 mM
cytoprotective effect against GCDCA (HUH-7 cells [8]): significant cytoprotective effect
significant cell death on treatment in increasing concentration (HUH-7 liver cancer cells): did not
concentration giving complete maintenance of cell viability (or effects of similar size) (HUH-7 cells [5]; [12]): 100 µM

CC(CCC(=O)NCC(=O)O)C1CCC2C3C(O)CC4CC(O)CCC4(C)C3CCC12C (stereo not drawn) [GCDCA, glycochenodeoxycholic acid]
effect on cell viability (HUH-7 liver cancer cells): reduction in cell viability at higher concentration with greater evidence of necrosis

tunicamycin
decrease in cell viability (alamarBlue) (HUH-7 cells [5]; tunicamycin alone, 5 μM, HUH7): approximately 30%

C[C@H](CCC(=O)O)[C@H]1CC[C@H]2[C@@H]3[C@@H](O)C[C@@H]4C[C@H](O)CC[C@]4(C)[C@H]3CC[C@]12C [UDCA, ursodeoxycholic acid]
concentration at which it can contribute to cell death [7]: > 200 µM
significant cell death on treatment in increasing concentration (HUH-7 liver cancer cells; human): 300 μM-1 mM
concentration giving complete maintenance of cell viability (or effects of similar size) (HUH-7 cells [5]; [12]): 100 µM
fraction absorbed ([9]; oral administration): 30-60%
share of absorption occurring in the small intestine ([9]; via passive diffusion): around 80%
faecal lithocholic acid [10]: increased faecal lithocholic acid significantly

C[C@H](CCC(=O)O)[C@H]1CCC2C3C(CC[C@@]21C)[C@@]1(C)CC[C@@H](O)CC1C[C@]3(C)O (stereo partly drawn)
resistance to bacterial modification (metabolism) [11]: more resistant than the naturally occurring analogues

CC(CCC(=O)O)C1CCC2C3C(O)CC4CC(OS(=O)(=O)O)CCC4(C)C3CCC12C (stereo not drawn) [C-3 sulfate]
faecal lithocholic acid [10]: increased faecal lithocholic acid significantly

CC(CCC(=O)O)C1CCC2C3C(OS(=O)(=O)O)CC4CC(O)CCC4(C)C3CCC12C (stereo not drawn) [C-7 sulfate]
faecal lithocholic acid/deoxycholic acid ratio [10]: reduced
